Source: BindingDB's records for patent US8987287 (Purdue Pharma, 2015)
pKi: −log10 of the molar value.

Experiments:
[1] = molecular target: Kappa-type opioid receptor (Homo sapiens, UniProt P41145); assay: Radioligand Dose-Displacement Binding Assay; settings: pH 7.4; 25 °C
Method: Radioligand dose displacement assays used 0.4 nM [3H]-U69,593 (GE Healthcare, Piscataway, N.J.; 40 Ci/mmole) with 15 ug membrane protein (recombinant kippa opioid receptor expressed in HEK 293 cells; in-house prep) in a final volume of 200 ul binding buffer (5% DMSO, 50 mM Trizma base, pH 7.4). Non-specific binding was determined in the presence of 10 uM unlabeled naloxone or U69,593. All reactions were performed in 96-well polypropylene plates for 1 hour at a temperature of about 25 C. Binding reactions were terminated by rapid filtration onto 96-well Unifilter GF/C filter plates (Perkin Elmer, Shelton, Conn.) presoaked in 0.5% polyethylenimine (Sigma). Harvesting was performed using a 96-well tissue harvester (Perkin Elmer, Shelton, Conn.) followed by five filtration washes with 200 ul ice-cold binding buffer. Filter plates were subsequently dried at 50 C. for 1-2 hours. Fifty ul/well scintillation cocktail (Perkin Elmer, Shelton, Conn.) was added.

Mu-type opioid receptor = Mu-type opioid receptor (Homo sapiens, UniProt P35372); assay: Radioligand Dose-Displacement Binding Assay; settings: pH 7.4; 50 °C
Chain of Mu-type opioid receptor (P35372 whole entry): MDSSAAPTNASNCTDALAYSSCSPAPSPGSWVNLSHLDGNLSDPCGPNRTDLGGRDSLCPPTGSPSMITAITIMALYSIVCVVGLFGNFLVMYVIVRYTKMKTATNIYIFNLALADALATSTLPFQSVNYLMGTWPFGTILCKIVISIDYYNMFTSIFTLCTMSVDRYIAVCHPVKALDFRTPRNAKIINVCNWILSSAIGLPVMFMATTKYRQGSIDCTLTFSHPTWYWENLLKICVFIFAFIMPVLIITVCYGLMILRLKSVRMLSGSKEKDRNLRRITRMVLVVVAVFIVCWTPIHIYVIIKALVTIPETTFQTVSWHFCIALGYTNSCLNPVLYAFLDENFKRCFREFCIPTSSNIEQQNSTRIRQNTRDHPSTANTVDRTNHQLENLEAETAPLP
Method: mu-Opioid Receptor Binding Assay Procedures: Radioligand dose-displacement binding assays for mu-opioid receptors used 0.3 nM [3H]-diprenorphine (Perkin Elmer, Shelton, Conn.), with […]/well in a final volume of 500 ul binding buffer (10 mM MgCl2, 1 mM EDTA, 5% DMSO, 50 mM HEPES, pH 7.4). Reactions were carried out in the absence or presence of increasing concentrations of unlabeled naloxone. All reactions were conducted in 96-deep well polypropylene plates for 2 hours at room temperature. Binding reactions were terminated by rapid filtration onto 96-well Unifilter GF/C filter plates (Perkin Elmer, Shelton, Conn.), presoaked in 0.5% polyethylenimine using a 96-well tissue harvester (Perkin Elmer, Shelton, Conn.) followed by performing three filtration washes with 500 ul of ice-cold binding buffer. Filter plates were subsequently dried at 50 C. for 2-3 hours. BetaScint scintillation cocktail (Perkin Elmer, Shelton, Conn.) was added (50 ul/well).

Chain of Kappa-type opioid receptor (P41145 whole entry): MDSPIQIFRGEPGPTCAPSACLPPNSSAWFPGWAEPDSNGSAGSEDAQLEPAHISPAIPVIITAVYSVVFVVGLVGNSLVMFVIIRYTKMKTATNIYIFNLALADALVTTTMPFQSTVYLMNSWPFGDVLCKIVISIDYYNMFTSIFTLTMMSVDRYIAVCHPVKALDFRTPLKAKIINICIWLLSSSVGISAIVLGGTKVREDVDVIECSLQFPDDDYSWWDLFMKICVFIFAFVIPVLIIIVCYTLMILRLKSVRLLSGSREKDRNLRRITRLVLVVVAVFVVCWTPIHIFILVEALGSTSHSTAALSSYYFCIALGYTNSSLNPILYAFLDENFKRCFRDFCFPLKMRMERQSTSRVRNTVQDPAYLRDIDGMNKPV

COc1ccc2c(c1)[C@]13CCN(C)[C@H](C2)[C@]1(O)CC[C@@]1(C3)NC(=O)NC1=O [US8987287, 9]
pKi [1]: < 4.70 | pKi (Mu-type opioid receptor): 5.41
